Source: patent US5602110A, “Method and composition for treating cystic fibrosis” (Case Western Reserve University, priority 1995, dated 1997)

Legend:
[1] = system: CF-T43 cells (ΔF508 CFTR); assay: 36Cl chloride efflux assay in CF-T43 cells; format: cell-based; conditions: for chloride efflux rate increase (chloride transport) in the CF cells: CF-T43, isoproterenol 10 μM, milrinone 100 μM or IBMX 100 μM as labelled; for chloride efflux: agent(s) as labelled, no other drug, FIG. 1, FIG. 2; for effect of added agent on chloride efflux stimulated by isoproterenol and milrinone: added to milrinone and isoproterenol, FIG. 2
Description: (§1) Two independent cell lines, Calu-3 and 16HBE, both derived from airway epithelial cells and both expressing normal CFTR (Shen et al., 1994; Haws et al., 1994; Haws et al., 1992) were assayed for increased Cl transport either by a radioisotopic flux assay or electrophysiologically. Using the method of Venglarik et al. (1990), cells were incubated in a Ringer's solution containing ^36 Cl to allow uptake of isotope into the cells, and then washed to remove external isotopic chloride. Efflux was measured by replacing the incubation solution every 30 seconds and quantitating the amount of ^36 Cl secreted into it. After 6 changes of solution (3 minutes), either drugs or placebos were added to the media. […] Efflux was then measured an additional 12 media changes (6 minutes).
CF-T43 is an SV40 T-antigen transformed cell line derived from a CF nasal turbinate (Jetten, et al., 1989). These cells maintain many of the original epithelial characteristics, including defective cAMP-dependant chloride transport, and have been used as a model for CF airway cells, CF-T43 cells carry and express only the ΔF508 CFTR mutation. […] With reference to FIG. 1, the control efflux contains Hepes-buffered Ringer's solution (HBR) +0.2% dimethylsulfoxide (DMSO), which is the concentration of DMSO in which the drugs were dissolved. The arrow indicates when the drugs were added. Iso means isoproterenol; Mil means milrinone.

[2] = system: CF nasal polyp epithelial cells homozygous for the ΔF508 mutation; assay: 36Cl chloride efflux assay in primary CF nasal polyp epithelial cells; format: cell-based, human; conditions: for chloride efflux rate increase (chloride transport) in the CF cells: primary CF nasal polyp cells, isoproterenol 10 μM, milrinone 100 μM or IBMX 100 μM as labelled
Description: A test was run to confirm that the chloride efflux in primary CF cells (as opposed to CF-T43 cells used above) is mediated by the cAMP-dependent, protein kinase A pathway and not by calcium-dependent chloride channels. Efflux assays were carried out on primary CF cells, being CF nasal polyp epithelial cells homozygous for the ΔF508 mutation. Any significant contribution of calcium-activated chloride channels was ruled out by incubating the cells in BAPTA-AM, and comparing the response induced by ionomycin to that of albuterol combined with milrinone.
Transformed cell lines often have altered properties relative to the tissues from which they were derived. To determine if the responses seen in the transformed CF-T43 cells were representative of primary tissue cells, primary epithelial cells from CF nasal polyps were assayed for chloride efflux. Tissues were obtained from nasal polypectomies of CF patients and epithelial cells were isolated by digesting cells from basement membrane by collagenase followed by low speed centrifugations. After counting viable cells, cells were plated and assayed in the same way as the CF-T43 cells. A total of 5 such experiments were performed with polyp cells from different, unrelated patients.
The effects of these compounds on chloride permeability were measured as the rate of ^36 Cl efflux after stimulation divided by the basal rate, given as rstim /rbas. […] Both CF types are homozygous for the ΔF508 mutation.

[3] = system: Calu-3 and 16HBE airway epithelial cells expressing normal CFTR; assay: 36Cl chloride efflux assay in airway epithelial cell lines expressing normal CFTR; format: cell-based; conditions: 100 μM each drug alone; Calu-3 and 16HBE cells
Description: The nomenclature for cyclic nucleotide phosphodiesterases, as follows, is taken from Beavo (1990).
as §1

[4] = system: cellular cAMP in CF-T43 cells; conditions: in combination with isoproterenol 10 μM
16HBE cells = assay: Whole-cell voltage clamp; format: cell-based
Description: Whole-cell voltage clamp was used to confirm that the chloride efflux was consistent with CFTR activation. 16HBE cells were exposed to varying concentrations of milrinone and the membrane potential clamped in increments of 10 mV from -150 mV to +50 mV. The resulting current was then plotted as a function of voltage. […] A linear current/voltage relationship is a characteristic of CFTR activation. If currents are carried by chloride there should be a reduction in current at any given voltage when chloride is replaced by an ion to which CFTR is impermeante, such as gluconate.

[5] = system: mutant CFTR in CF epithelial cells; conditions: Grubb et al. 1992; cited from earlier work
[6] = system: ΔF508 CFTR in Xenopus laevis oocytes; conditions: high concentrations of IBMX with relatively low concentrations of forskolin; cited from earlier work
normal CFTR in 293 cells = conditions: forskolin alone; normal type-transfected 293 cells
[7] = 100 μM glibenclamide, CF-T43 cells

C[C@H](CCC(=O)O)C[C@H](C)C[C@H](C)C(=O)/C=C(\O)[C@H](C)C[C@H](C)C/C=C/[C@@H](C)[C@@H](O)[C@@H](C)[C@@H](O)C[C@@H]1CC[C@@](C)([C@H]2CC[C@@](C)([C@@H](C)O)O2)O1 [ionomycin]
chloride efflux response relative to the isoproterenol/milrinone response ([1]; CF-T43 cells): greater than the isoproterenol/milrinone response | chloride efflux response in the presence of BAPTA-AM ([1]; CF-T43 cells, BAPTA-AM added): eliminated | chloride efflux response in the presence of BAPTA-AM ([2]; primary CF nasal polyp cells incubated in BAPTA-AM): eliminated

CC(C)NCC(O)c1ccc(O)c(O)c1 (stereo not shown) [isoproterenol]
chloride efflux rate increase (chloride transport) in the CF cells [1]: neither agent alone elicited a rate increase | chloride efflux ([1]; CF-T43 cells): no effect on chloride efflux | chloride efflux rate increase (chloride transport) in the CF cells [2]: neither agent alone elicited a rate increase

CNCCNS(=O)(=O)c1cccc2cnccc12 [H-8, N[-2-(methylamino)ethyl]-5-isoquinoline sulfonamide]
effect of preincubation on the isoproterenol/milrinone chloride efflux response ([2]; CF nasal polyp cells preincubated in H-8): dramatically reduced

Nc1ncnc2c1ncn2[C@@H]1O[C@@H]2CO[P@@](O)(=S)O[C@H]2[C@H]1O [Rp-cAMPS]
effect of added agent on chloride efflux stimulated by isoproterenol and milrinone ([1]; CF-T43 cells): abolished the increase in chloride efflux

Cc1[nH]c(=O)c(C#N)cc1-c1ccncc1 [milrinone]
chloride efflux rate increase (chloride transport) in the CF cells [1]: neither agent alone elicited a rate increase | increase in chloride efflux rate [3]: greatest increase in chloride efflux rate | cAMP increase compared with isoproterenol alone [4]: not significantly above that of isoproterenol alone | chloride efflux rate increase (chloride transport) in the CF cells [2]: neither agent alone elicited a rate increase | reversal potential of current (16HBE cells; all concentrations of milrinone): 0 mV | current when chloride was replaced by gluconate (16HBE cells; chloride replaced by gluconate): reduction of current | dose dependence of effect on whole-cell current (16HBE cells; varying concentrations): dose-dependent | current/voltage relationship (16HBE cells; varying concentrations of milrinone, clamp -150 mV to +50 mV): linear

COc1ccc(C2CNC(=O)C2)cc1OC1CCCC1 (stereo not shown) [rolipram]
increase in chloride efflux rate [3]: Only the inhibitors specific for type III phosphodiesterases produced detectable increases

CC(C)Cn1c(=O)n(C)c(=O)c2[nH]cnc21 [IBMX, 3-isobutyl-1-methylxanthine]
chloride efflux ([1]; CF-T43 cells): not provide an increase in efflux rate | increase in chloride efflux rate [3]: Only the inhibitors specific for type III phosphodiesterases produced detectable increases | activation of a chloride conductance [5]: unable to activate a chloride conductance | activation of ΔF508 CFTR [6]: could be activated

Nc1ncnc2c1ncn2[C@@H]1O[C@@H]2COP(O)(=S)O[C@H]2[C@H]1O (stereo partly shown) [Sp-cAMPS, Sp-adenosine 3':5'-cyclic phosphorothioate]
effect of added agent on chloride efflux stimulated by isoproterenol and milrinone ([1]; CF-T43 cells): enhanced | chloride efflux ([1]; CF-T43 cells): no effect on chloride efflux

Nc1cc(-c2ccncc2)c[nH]c1=O [amrinone]
increase in chloride efflux rate [3]: greatest increase in chloride efflux rate | increase in cellular cAMP over baseline ([4]; 15 minutes, CF-T43 cells): same as milrinone

COc1ccc(Cl)cc1C(=O)NCCc1ccc(S(=O)(=O)NC(=O)NC2CCCCC2)cc1 [glibenclamide]
effect on efflux elicited by ionomycin [1, 7]: little effect | inhibition of β-adrenergic agonist/milrinone-stimulated efflux [1, 7]: completely inhibited

C=C[C@@]1(C)CC(=O)[C@]2(O)[C@@]3(C)[C@@H](O)CCC(C)(C)[C@@H]3[C@H](O)[C@H](OC(C)=O)[C@@]2(C)O1 [forskolin]
activation of chloride efflux (normal CFTR in 293 cells): sufficient to activate
